Data on one compound can be found in patent US8252796B2, “1-butyl-2-hydroxyaralkyl piperazine derivatives and the uses as anti-depression medicine thereof” (CSPC Zhonggi Pharmaceutical Technology (Shijiazhuang) Co. …, priority 2008, dated 2012).

Common to all, as to type: biochemical
Experiment [1] deals with T1, DA reuptake, Rat striatum synaptosome (Rattus norvegicus, UniProt P23977).
T1 construct: Rat striatum; from tissue; host or cells: rat striatum synaptosomes
Description: DA reuptake, optical isomers (Example 37). The conditions noted are these: 15 min/37° C. From the text: (§1) 3. Experiment Results (IC50 Value was Obtained by Nonlinear Regression Analysis of Inhibition Rate/Concentration Response Curve)

For experiment [2], the target named is T2, NE reuptake, Rat hypothalamus synaptosome (Rattus norvegicus, UniProt Q9WTR4).
T2 construct: hypothalamus; from tissue; host or cells: rat hypothalamus synaptosomes
T2 sequence (Q9WTR4 1-597): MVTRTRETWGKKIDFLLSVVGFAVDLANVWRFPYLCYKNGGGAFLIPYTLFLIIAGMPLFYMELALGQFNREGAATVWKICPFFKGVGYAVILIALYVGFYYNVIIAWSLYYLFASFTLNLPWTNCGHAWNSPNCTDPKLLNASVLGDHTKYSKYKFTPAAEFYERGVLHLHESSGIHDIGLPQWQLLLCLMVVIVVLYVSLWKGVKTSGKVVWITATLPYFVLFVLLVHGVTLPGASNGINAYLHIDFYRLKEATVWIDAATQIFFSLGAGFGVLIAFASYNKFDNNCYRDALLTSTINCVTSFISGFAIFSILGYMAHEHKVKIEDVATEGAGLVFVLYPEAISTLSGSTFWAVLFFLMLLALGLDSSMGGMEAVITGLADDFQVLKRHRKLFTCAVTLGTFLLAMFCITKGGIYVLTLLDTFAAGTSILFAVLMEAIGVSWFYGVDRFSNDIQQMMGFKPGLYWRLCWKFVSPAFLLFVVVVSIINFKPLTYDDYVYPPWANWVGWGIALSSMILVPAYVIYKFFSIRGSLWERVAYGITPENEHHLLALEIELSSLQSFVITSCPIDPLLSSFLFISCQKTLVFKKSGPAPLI
The experiment in a line: NE reuptake, optical isomers (Example 37). The conditions noted are these: 20 min/37° C.
Description: as §1

Experiment [3] deals with T3, 5-HT reuptake, Rat brain synaptosome (Rattus norvegicus, UniProt P31652).
T3 construct: Rat brain; from tissue; host or cells: rat brain synaptosomes
T3 sequence (P31652 whole entry): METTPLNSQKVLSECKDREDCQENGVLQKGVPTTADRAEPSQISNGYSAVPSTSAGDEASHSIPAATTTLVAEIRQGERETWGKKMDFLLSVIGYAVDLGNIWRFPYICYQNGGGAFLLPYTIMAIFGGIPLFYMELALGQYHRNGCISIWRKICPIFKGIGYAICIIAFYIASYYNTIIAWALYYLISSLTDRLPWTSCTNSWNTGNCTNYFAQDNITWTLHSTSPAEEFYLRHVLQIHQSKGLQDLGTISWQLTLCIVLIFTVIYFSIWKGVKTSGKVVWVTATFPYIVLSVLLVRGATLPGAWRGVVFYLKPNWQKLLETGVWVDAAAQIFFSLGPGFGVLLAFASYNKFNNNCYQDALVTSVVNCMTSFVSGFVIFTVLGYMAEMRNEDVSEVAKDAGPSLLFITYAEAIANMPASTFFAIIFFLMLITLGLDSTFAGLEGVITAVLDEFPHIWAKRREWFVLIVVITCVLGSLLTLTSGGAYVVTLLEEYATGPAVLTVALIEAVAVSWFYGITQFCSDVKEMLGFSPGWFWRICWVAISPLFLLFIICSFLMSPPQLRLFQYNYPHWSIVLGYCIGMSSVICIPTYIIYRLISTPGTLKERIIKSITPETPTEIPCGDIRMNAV
Description: 5-HT reuptake, optical isomers (Example 37). The conditions noted are these: 15 min/37° C.
Description: as §1

T1 sequence (P23977 whole entry): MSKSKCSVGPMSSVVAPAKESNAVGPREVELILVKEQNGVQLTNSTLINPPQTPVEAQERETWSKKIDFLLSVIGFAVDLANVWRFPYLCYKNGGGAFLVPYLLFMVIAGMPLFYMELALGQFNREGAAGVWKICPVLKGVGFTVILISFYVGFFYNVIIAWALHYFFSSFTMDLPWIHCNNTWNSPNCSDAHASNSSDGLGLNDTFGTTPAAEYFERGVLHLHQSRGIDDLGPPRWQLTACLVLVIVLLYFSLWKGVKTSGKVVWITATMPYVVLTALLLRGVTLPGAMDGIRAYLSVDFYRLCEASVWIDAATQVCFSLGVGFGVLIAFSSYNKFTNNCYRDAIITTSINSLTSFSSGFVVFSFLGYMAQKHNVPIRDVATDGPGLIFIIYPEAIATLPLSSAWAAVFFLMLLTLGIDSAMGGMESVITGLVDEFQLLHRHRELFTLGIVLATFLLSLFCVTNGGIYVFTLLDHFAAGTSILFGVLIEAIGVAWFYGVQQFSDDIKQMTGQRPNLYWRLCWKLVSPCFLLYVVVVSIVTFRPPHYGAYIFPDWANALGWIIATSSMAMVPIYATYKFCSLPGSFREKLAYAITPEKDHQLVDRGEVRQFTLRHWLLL

The term IC50 denotes the concentration needed to halve the response being measured. Read a high IC50 as weaker potency in that assay. As for `CCCCC(C(O)c1ccc2c(Cl)c(OC)ccc2c1)N1CCN(Cc2ccccc2)CC1` (single isomer, unassigned) [IX-23], the IC50 in experiment [1] was 1000 nM; in experiment [2] it was 2100 nM; in experiment [3], 1900 nM.
